Here are results for one compound from patent US20080200555A1, “USE OF NOREPINEPHRINE REUPTAKE INHIBITORS FOR THE TREATMENT OF TIC DISORDERS” (priority 2001, published 2008).

The nature of this assay: Case report: atomoxetine treatment of a person with ADHD and tics (Example 1). Type of assay: in vivo, human. The text has this:
A person presented with ADHD and tics. […] At baseline, the tics included multiple motor and multiple vocal tics, some complex or in bouts. Their vocal tics were especially problematic and disruptive, causing difficulties for the child at school, in social situations, and when the family went out in public (for example, to a restaurant). The clinical global impression-severity score (CGI-S) is a seven-point scale (1=normal, 7=very severely ill) that summarizes a clinician's overall impression about how severe a patient's illness is compared to other patients the clinician has treated. Based on the parent's report, the retrospective CGI-S score for the child's tics at baseline was 5, markedly ill. The YGTSS is the Yale Global Tic Severity Scale and summarizes the number, severity and frequency of a patient's tics. The minimum score on the YGTSS is zero and the maximum is 50. Based on the parent's description the patient's baseline YGTSS was about 30.
After about 2 to 3 weeks of atomoxetine treatment, the patient's parent reported a single head tic and a few eye blinking tics in the previous week, and no vocal tics. The parent also reported that the patient's complex tics or compulsive behaviors (which had involved them playing with some doors with their feet in a somewhat stereotypical manner), had also stopped. […] The CGI-S score for the child's tics based on the interview with their parent was […], minimally ill. Based on the same interview, the YGTSS total score for the child was 8. The clinical global impression-improvement (CGI-I) score is a seven-point scale (1=very much improve, 7=very much worse) that summarizes a clinician's overall impression about how much a patient has improved with treatment as compared to where they were at baseline. The CGI-I score for the patient's tics was 1, very much improved.

The mark [1] stands for this setting: after about 2 to 3 weeks of atomoxetine treatment.

Consider `CNCC[C@@H](Oc1ccccc1C)c1ccccc1` [atomoxetine, (R)-(−)-N-methyl-3-(2-methylphenoxy)-3-phenylpropylamine], for which, under setting [1], the “complex tics or compulsive behaviors (mother's report)” value is “stopped” and the “vocal tics in the previous week (mother's report)” value is on record as “no vocal tics”. For the setting “person with ADHD and tics, after about 2 to 3 weeks of atomoxetine treatment, scale 0 to 50, baseline about 30”, the “YGTSS (Yale Global Tic Severity Scale) total score” value came out at 8. Moreover, the “clinical global impression-severity score (CGI-S) for the child's tics” value (person with ADHD and tics, after about 2 to 3 weeks of atomoxetine treatment, seven-point scale (1=normal, 7=very severely ill), baseline 5) amounted to 2a. Moreover, the “change in tics after starting treatment” value (person with ADHD and tics, after starting on atomoxetine) is “dramatic drop”. In addition, the ADHD result (person with ADHD and tics, on atomoxetine treatment) is reported as “improved”. Also, for the setting “person with ADHD and tics, seven-point scale (1=very much improve, 7=very much worse), compared to baseline”, the “clinical global impression-improvement (CGI-I) score for the patient's tics” value came out at 1.
